In patent publication US9205141B2, “Immunomodulatory methods and systems for treatment and/or prevention of hypertension” (Cardio Vax, LLC, priority 2010, dated 2015):

What was measured:
[1] = system: AngII-infused male apoE KO mice; assay: Blood pressure and heart rate in angiotensin II-infused apoE KO mice after P210 immunization; assay type: in vivo; settings: apoE KO mice immunized s.c. 100 μg at 7, 10, 12 weeks; AngII 1000 ng/Kg/min; 4 weeks after pump implantation
Procedure: Saline was delivered to the control group.
Angiotensin II infusion via implanted osmotic pump was started at 10 weeks of age. Mice were euthanized at 14 weeks of age. Blood pressure was measured throughout the duration of experiment.

bone marrow derived DCs = assay: Cytolytic activity of CD8(+) T cells from immunized mice against dendritic cells in vitro; assay type: cell-based
Procedure: In Vitro Generation of BM-Derived dendritic cells (BMDCs) The method for generating BMDC with GM-CSF was adapted from previous publication with modification. (19) Briefly, bone marrow cells from femurs and tibiae of male apoE−/− mice were plated into 10 cm culture plates (Falcon) with 20 ml complete RPMI-1640 containing 10 ng/ml GM-CSF (R&D Systems) and 10 ng/ml IL-4 (Invitrogen). Cells were washed and fed on day 3 and day 5 by removing the old medium followed by replenishing with fresh culture medium with GM-CSF and IL-4. On day 8, the immature DC appeared as non-adherent cells under the microscope and harvested by vigorous pipetting and subcultured into new culture plates with 2×10^5 DCs in 1.5 ml medium.
CD8(+) T-cells were negatively isolated using a CD8 selection Dynabeads kit (Invitrogen) per manufacturer's protocol. The selected CD8(+) T-cells were then co-culture with DCs in a CD8:DC ratio of 3:1. A series of pilot studies has been performed to determine the optimal CD8:DC ratio for this assay. After co-culture for 4 hours, cells were collected and processed for flow cytometric determination of CD11c and 7-AAD by LSR II flow cytometer (BD Biosciences) and data was analyzed with Summit V4.3 software. Dendritic cell death without CD8(+) T-cells in the co-culture was used as baseline and percentage of specific lysis of cells was calculated using a method described previously. (20)
One week after the third immunization, mice were euthanized to collect spleen CD8^+ T cells. Bone-marrow derived DCs were differentiated from naïve apoE−/− mice and used as target cells. […]
Applicants therefore assessed the effect of the vaccine on cytotoxic activity of CD8^+ T cells against syngeneic bone marrow-derived DCs. […] Cells were collected and processed for flow cytometric determination of CD11c^+ and 7-AAD 4 hours later.^20 Dendritic cell death without CD8^+ T cells in the co-culture was used as baseline and percentage of specific lysis of cells was calculated using a method described previously.^20

BMDCs = assay: Endocytosis of FITC-labeled p210 by DCs in vitro; assay type: cell-based, mice; settings: FITC fluorescence in BMDCs
Description: Peptide loading on BMDCs was defined using p210 labeled with FITC (FITC conjugating kit from Pierce).

male apoE (−/−) mice = assay: Athero-protective effect of p210 immunization in apoE (−/−) mice on high cholesterol chow; assay type: in vivo; settings: 100 μg dose compared to 25 or 50 μg dose
Description: Selection of peptides and their preparation for immunization The establishment and screening of human apoB-100 peptides has been reported (8). Based on Applicants pilot experiments and prior reports, (9),(10) Applicants selected peptide 210 (p210, KTTKQ SFDLS VKAQY KKNKH—SEQ ID NO: 210) as a candidate immunogen. Native p210 peptide (Euro-Diagnostica AB, Sweden) was conjugated to cationic bovine serum albumin (cBSA) as carrier using a method described previously. (3),(4) Alum was used as adjuvant and mixed with peptide/cBSA conjugate with 1:1 ratio in volume. Peptide conjugation and mixing with alum were prepared fresh prior to each immunization.
Immunization protocols Male apoE (−/−) mice (Jackson Laboratories) were housed in an animal facility accredited by the American Association of Accreditation of Laboratory Animal Care and kept on a 12-hour day/night cycle with unrestricted access to water and food. The Institutional Animal Care and Use Committee of Cedars-Sinai Medical Center approved the experimental protocols. […] Mice, maintained on normal chow diet, received subcutaneous primary immunization in the dorsal area between scapulas at 6-7 weeks of age, followed by a booster at 9 and 12 weeks of age. One week after last booster, diet was switched to high cholesterol chow (TD 88137, Harlan-Teklad) and continued until euthanasia at the age of 25 weeks. […]

[2] = system: naïve male apoE (−/−) recipient mice; assay: Adoptive transfer of cells from immunized donors to naive apoE (−/−) recipients; assay type: in vivo
Description: Adoptive transfer experiment Male apoE (−/−) mice on regular chow received subcutaneous immunization as described in previous paragraph and were sacrificed at 13 weeks of age as donors. Splenocytes from the same treatment group were pooled before cell isolation. Donor CD8(+) T-cells, CD4(+)CD25(+) T-cells or B-cells were isolated using Dynabeads FlowComp (Invitrogen) according to the manufacturer's protocols. CD4(+) T-cells were negatively selected from the splenocytes followed by positive selection of CD4(+)CD25(+) cells. B cells were negatively isolated whereas CD8(+) T-cells were positively isolated first and released from beads. The purity of pooled CD8(+) T-cells, CD4(+)CD25(+) T-cells and B-cells was 90%, 80% and 70%, respectively. The isolated CD8(+) T-cells (1×10^6 cells/mouse), CD4(+)CD25(+) T-cells (1×10^5 or 3×10^5 cells/mouse) or B-cells (2×10^7 cells/mouse) were then adoptively transferred to naïve male apoE (−/−) recipient mice at 6-7 weeks of age via tail vein injection. In the published literatures of vascular biology, the number of adoptively transferred lymphocytes varied greatly. For B-cells transfer, the number of 2×10^7 cells/mouse was chosen based on two prior reports. (11),(12) For CD4(+)CD25(+) T-cells transfer, the number of cells transferred ranged from 5×10^4 cells/mouse to 1×10^6 cells/mouse in the published literature. […]

[3] = system: CD8+CD25− T cells co-cultured with DCs; assay: Presentation of p210 by DCs to CD8+CD25− T cells in co-culture; assay type: cell-based; settings: 48 hours, DCs treated with LPS, compared to untreated or LPS only treated co-cultures
Description: The p210 peptide contains the proteoglycan binding site of the apoB-100 molecule. This peptide is a cell-penetrating peptide capable of efficiently delivering antigens for cross-presentation to cytotoxic CD8^+ T cells.^53 Applicants therefore assessed activation of CD8^+CD25^− T cells co-cultured with DCs loaded with p210 and matured with LPS.

[4] = CD8(+) T-cells from immunized mice vs PBS or cBSA/alum

KTTKQ SFDLS VKAQY KKNKH (KTTKQSFDLSVKAQYKKNKH) [p210, amino acids 3136-3155 of human apoB-100]
reduction in blood pressure [1]: about 11% | granzyme B expression of CD8(+) T-cells (bone marrow derived DCs; [4]): increased granzyme B expression | perforin level of CD8(+) T-cells (bone marrow derived DCs; [4]): no difference in perforin level | cytolytic activity after depletion of CD25+ cells (bone marrow derived DCs; CD8+ T cells depleted of CD25+ cells): abrogated the increased cytolytic activity | uptake of FITC-labeled p210 by dendritic cells (BMDCs): endocytosed by DCs | athero-reduction by dose (pilot experiment) (male apoE (−/−) mice): optimum athero-reduction | lesion size in recipients of CD4(+)CD25(+) T-cells ([2]; 1×10^5 cells/mouse): no difference in lesion size | lesion size in recipients of CD4(+)CD25(+) T-cells ([2]; 3×10^5 cells/mouse): did not reduce lesion sizes | activated CD8+CD25+ T cells after co-culture with p210-loaded DCs [3]: significantly increased CD8^+CD25^+ T cells
